Experimental data from PMC11500415, “Chemical inhibition of stomatal differentiation by perturbation of the master-regulatory bHLH heterodimer via an ACT-Like domain” (Nature Communications, 2024).
Values joined by “and” are separate entries in the source; they are usually repeats but may differ in a detail not shown here. Identical values can stand only once. Like-named read-outs stand apart in the source and are kept apart here.

Legend:
MUTE bHLH domain = target: T1, MUTE bHLH domain (Arabidopsis thaliana, UniProt Q9M8K6); assay: BLI direct binding; design: species or system A. thaliana; settings: for Response: BLI, GST-MUTE_bHLH on Anti-GST sensor, unit assumed
T1 construct: MUTEΔC (1-114); made in house; host or cells: E. coli BL21
T1 sequence (Q9M8K6 1-114): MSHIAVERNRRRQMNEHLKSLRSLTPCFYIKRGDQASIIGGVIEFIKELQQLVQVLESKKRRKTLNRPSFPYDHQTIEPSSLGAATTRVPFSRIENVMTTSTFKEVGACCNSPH
Source text: (§1) A. thaliana SCRM (1-494), ΔNSPCH (98-364), MUTE (1-202), ΔNFAMA (190-414), MUTEΔC (1-114), MUTER133A_R134A, MUTEE162A_E163A, MUTER133A_R134A_E162A_E163A, SCRM-ACTL (405-494), MUTE-ACTL (114-202), SPCH-ACTL (285-364), FAMA-ACTL (306-414), MUTE_ACTLR133A_R134A, MUTE_ACTLE162A_E163A, MUTE_ACTLR133A_R134A_E162A_E163A were cloned into pGEX-4T-1 vector with an N-terminal GST tag and a thrombin cleavage sequence. For protein expression, the constructs were transformed into E. coli strain BL21. For each transformant, a single colony was selected and incubated in 10 ml LB liquid media. The overnight-incubated E. coli suspensions were transferred to 1 L LB medium and incubated at 37 °C for around 2 h until the OD600 reached 0.4–0.6. The isopropyl β-D-1-thiogalactopyranoside ([…] of final concentration) was added to the cultures and the strains were incubated at 22 °C for a further 18 h. GST-fused proteins were purified using glutathione agarose resin. The soluble portion of the cell lysate was loaded onto a GST-Sepharose column. Nonspecifically bound proteins were removed by washing the column with 20 mM Tris pH 8.0, 200 mM NaCl. The bound GST-fused protein was eluted with 10 mm glutathione and 20 mM Tris pH 8.0, 200 mM NaCl. The GST-fused proteins were exchanged with phosphate-buffered saline buffer, and then the solution was treated with 50 μg of thrombin for 10–12 h at 16 ^οC. The GST portion of the protein was cleaved during thrombin digestion, and then the whole solution was reloaded onto the glutathione S-transferase column to obtain pure protein. The purified proteins were further purified by gel filtration on a Superdex-200 (GE) column using fast protein liquid chromatography and phosphate buffer (pH 7.2) as the eluent. The purity of the protein was checked by SDS-PAGE. For detailed lists of oligo DNA and plasmid information, see Supplementary Tables 5, 6, respectively.
(§2) The binding affinities of SCRM to MUTE / MUTER133A_R134A / MUTEE162A_E163A / MUTER133A_R134A_E162A_E163A in presence and absence of Stomidazolone (3) and its analogues (AYSJ1059 (5) and AYSJ1061 (6)), and Stomidazolone / AYSJ1059 / AYSJ1061 interactions with GST-tagged SCRM, MUTE, SPCH, FAMA, MUTE ΔACTL, MUTE_ACTL, SCRM_ACTL, SPCH_ACTL and FAMA_ACTL, MUTER133A_134A, MUTEE162A_E163A, MUTER133A_R134A_E162A_E163A were measured using the Octet Red96 system (ForteBio, Pall Life Sciences) following the manufacturer’s protocols. The optical probes coated with anti-GST were first loaded with 500 nM GST tagged proteins before kinetic binding analyses. The experiment was performed in 96-well plates maintained at 30 °C. Each well was loaded with 200 μL reaction volume for the experiment. The binding buffer used in these experiments contained 1× PBS supplemented with 2% DMSO, 0.02% Tween20. The concentrations of the Stomidazolone as the analyte in the binding buffer were 100, 50, 25, 12.5, 6.25, 3.12, and 1.56 μM. There was no binding of the analytes to the unloaded probes as shown by the control wells. Binding kinetics to all seven concentrations of the analytes were measured simultaneously using default parameters on the instrument. The data were analyzed using the Octet data analysis software. The association and dissociation curves were fit with the 1:1 homogeneous ligand model. The kobs (observed rate constant) values were used to calculate Kd, with steady-state analysis of the direct binding. See Supplementary Table 3 for details.

FAMA = target: T2, FAMA (Arabidopsis thaliana, UniProt Q56YJ8); assay: BLI direct binding; design: species or system A. thaliana
T2 construct: ΔNFAMA (190-414); made in house; host or cells: E. coli BL21
T2 sequence (Q56YJ8 190-414): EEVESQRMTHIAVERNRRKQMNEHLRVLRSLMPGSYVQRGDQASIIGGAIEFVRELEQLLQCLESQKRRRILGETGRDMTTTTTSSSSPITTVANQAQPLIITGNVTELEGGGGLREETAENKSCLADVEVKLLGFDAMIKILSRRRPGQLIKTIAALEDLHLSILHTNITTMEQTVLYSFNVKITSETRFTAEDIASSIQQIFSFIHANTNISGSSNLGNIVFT
Source text: as §1, §2

[1] = FAMA loaded on Anti-GST sensor, fit per sensor, Stomid Conc. (mM) 200-3.12, rep-1, rep-2
[2] = FAMA, Conc. (mM) 3.12, rep-1, rep-2
[3] = FAMA, Conc. (mM) 6.25, rep-1, rep-2
[4] = FAMA, Conc. (mM) 12.5, rep-1, rep-2
[5] = FAMA, Conc. (mM) 25, rep-1, rep-2
[6] = FAMA, Conc. (mM) 50, rep-1, rep-2
[7] = FAMA, Conc. (mM) 100, rep-1, rep-2
[8] = FAMA, Conc. (mM) 200, rep-1, rep-2

O=C1C(c2ccccc2)=NC(NS(=O)(=O)c2ccccc2)(c2ccccc2)N1S(=O)(=O)c1ccccc1 (centres unmarked) [Stomidazolone]
binding to MUTE bHLH versus ACTL domain (in words) (MUTE bHLH domain; BLI (Fig. 6h)): specifically binds to the ACTL domain
Response (MUTE bHLH domain; Stomid Conc. (nM) 6.25): 0.0607 nm
Response (MUTE bHLH domain; Stomid Conc. (nM) 12.5): 0.0612 nm
Response (MUTE bHLH domain; Stomid Conc. (nM) 25): 0.0712 nm
Response (MUTE bHLH domain; Stomid Conc. (nM) 50): 0.0833 nm
Response (MUTE bHLH domain; Stomid Conc. (nM) 100): 0.0921 nm
Response (MUTE bHLH domain; Stomid Conc. (nM) 200): 0.106 nm
Kd (FAMA; BLI steady state, FAMA, read-out: KD (SS)): 0.0782 ± 0.0065 mM
kdis (FAMA; [1]): 0.177 s⁻¹ and 0.176 s⁻¹ and 0.175 s⁻¹ and 0.178 s⁻¹ and 0.171 s⁻¹ and 0.18 s⁻¹
kon (FAMA; [1]): 2080 M⁻¹ s⁻¹
Kd (FAMA; FAMA loaded on Anti-GST sensor, fit per sensor, Stomid Conc. (mM) 200-3.12, rep-1, rep-2, read-out: KD): 0.0867 mM and 0.0859 mM and 0.0882 mM and 0.0891 mM and 0.0863 mM and 0.0866 mM and 0.0851 mM and 0.0817 mM and 0.0856 mM and 0.0903 mM and 0.0845 mM
RMax (FAMA; [2]): 0.095 and 0.0512
Req/Rmax(%) (FAMA; [2]): 100%
Response (FAMA; [2]): 0.0912 and 0.0512
kobs (FAMA; [2]): 0.00577 s⁻¹ and 0.0035 s⁻¹
RMax (FAMA; [3]): 0.108 and 0.0812
Req/Rmax(%) (FAMA; [3]): 97% and 100%
Response (FAMA; [3]): 0.1071 and 0.0812
RMax (FAMA; [4]): 0.124 and 0.1621
Response (FAMA; [4]): 0.1223 and 0.1621
RMax (FAMA; [5]): 0.165 and 0.1913
Response (FAMA; [5]): 0.1623 and 0.1913
RMax (FAMA; [6]): 0.251 and 0.2843
Req/Rmax(%) (FAMA; [6]): 89%
Response (FAMA; [6]): 0.2461 and 0.2843
RMax (FAMA; [7]): 0.435 and 0.3712
Response (FAMA; [7]): 0.4312 and 0.3712
RMax (FAMA; [8]): 0.553 and 0.5072
Req/Rmax(%) (FAMA; [8]): 98%
Response (FAMA; [8]): 0.5523 and 0.5072
koff (FAMA; read-out: kdis(1/s), FAMA loaded on Anti-GST sensor, fit per sensor, Stomid Conc. (mM) 200-3.12, rep-1, rep-2): 0.179 s⁻¹
kon (FAMA; read-out: kon(1/Ms), FAMA loaded on Anti-GST sensor, fit per sensor, Stomid Conc. (mM) 200-3.12, rep-1, rep-2): 2070 M⁻¹ s⁻¹
